Results from patent publication US20230083012A1, “DIHYDROPYRIMIDINE DERIVATIVES AND USES THEREOF IN THE TREATMENT OF HBV INFECTION OR OF HBV-INDUCED DISEASES” (priority 2019, published 2023).
Like-named read-outs stand apart in the source and are kept apart here.

Legend:
HBV = assay: Anti-HBV activity in HepG2.2.15 cells (HBV DNA in culture medium by qPCR); assay type: cell-based; settings: HepG2.2.15 cells, 6 days treatment, HBV DNA in culture medium quantified by real-time PCR, read-out: EC50
How it was run: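 HepG2.2.15 cells in 2% FBS medium at 37 °C were treated with compounds for 6 days, with medium and compound refreshed at day 3; 1:3 dilutions, 8 concentrations in triplicate, top 10 or 1 uM. HBV DNA in culture medium quantified by qPCR to derive EC50; CC50 from parallel plates (top 100 uM).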

[1] = Cytotoxicity determination in HepG2.2.15 cells (CCK-8 cell viability); assay type: cell-based; settings: human, 6 days treatment, CCK-8 assay, highest concentration 100 uM
How it was run: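 HepG2.2.15 cells seeded at 5,000 cells/well in 2% FBS medium, exposed 6 days to compounds (8-point 1:3 dilutions from 100 uM, triplicate), refreshed at day 3. Viability read by CCK-8 after 2.5 h at 37° C, absorbance 450 nm with 630 nm reference; CC50 calculated.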

[2] = Hepatitis B virus, HepG2.2.15, 144 h

Structure (SMILES)	EC50 (HBV; [2]) [nM]	CC50 at 6 days [1] [nM]	EC50 (HBV) [nM]
CCOC(=O)C1=C(CN2CC(F)(F)[C@H]3[C@@H]2CCN3CC(C)(C)C(=O)O)NC(c2nccs2)=N[C@@H]1c1cccc(O)c1C (single isomer, unassigned) [Compound 106, (cis)-3-(4-((5-(ethoxycarbonyl)-6-(3-hydroxy-2-methylphenyl)-2-(thiazol-2-yl)-3,6-dihydropyrimidin-4-yl)methyl)-6,6-difluorohexahydropyrrolo[3,2-b]pyrrol-1(2H)-yl)-2,2-dimethylpropanoic acid]	20	39500	
CCOC(=O)C1=C(CN2CC(F)(F)[C@@H]3C(=O)N(CCC(C)(C)C(=O)O)C[C@@H]32)NC(c2nccs2)=N[C@H]1c1cccc(F)c1C (single isomer, unassigned) [Compound 193]	12.1	48200	
CCOC(=O)C1=C(CN2CC(F)(F)[C@H]3[C@@H]2CCN3CCC(C)(C)C(=O)O)NC(c2nccs2)=N[C@H]1c1cccc(F)c1Cl (single isomer, unassigned) [Compound 145, 4-((cis)-4-((6-(2-chloro-3-fluorophenyl)-5-(ethoxycarbonyl)-2-(thiazol-2-yl)-3,6-dihydropyrimidin-4-yl)methyl)-6,6-difluorohexahydropyrrolo[3,2-b]pyrrol-1(2H)-yl)-2,2-dimethylbutanoic acid]	0.9	26000	
CCOC(=O)C1=C(CN2CC(F)(F)[C@H]3[C@@H]2CN(C(C)=O)N3CCC(C)(C)C(=O)O)NC(c2nccs2)=N[C@H]1c1cccc(F)c1C [Compound 70A, 4-((cis)-2-Acetyl-4-(((S)-5-(ethoxycarbonyl)-6-(3-fluoro-2-methylphenyl)-2-(thiazol-2-yl)-3,6-dihydropyrimidin-4-yl)methyl)-6,6-difluorohexahydropyrrolo[3,2-c]pyrazol-1(2H)-yl)-2,2-dimethylbutanoic acid]		> 50000	35
CCOC(=O)C1=C(CN2CC(F)(F)[C@@H]3[C@H]2CN(C(=O)C2(F)CC2)N3CCC(C)(C)C(=O)O)NC(c2nccs2)=N[C@H]1c1cccc(F)c1C (single isomer, unassigned) [Compound 85]	69	22600	
CCOC(=O)C1=C(CN2CC(F)(F)[C@@H]3CN(CC4(CC(=O)O)CC4)C[C@@H]32)NC(c2nccs2)=N[C@H]1c1cccc(F)c1C (single isomer, unassigned) [Compound 48]	105	> 100000	
CCOC(=O)C1=C(CN2CC[C@]3(F)CN(CC(C)(C)C(=O)O)C(=O)[C@H]23)NC(c2nccs2)=N[C@H]1c1cccc(F)c1C (single isomer, unassigned) [Compound 24A]	221	48500	
CCOC(=O)C1=C(CN2CC(F)(F)[C@@H]3CN(CC(C)(C)C(=O)O)C(=O)[C@@H]32)NC(c2nccs2)=N[C@H]1c1cccc(F)c1C (single isomer, unassigned) [Compound 13B]	3.5	38600	
CCOC(=O)C1=C(CN2CC(F)(F)[C@@H]3C(=O)N(C[C@H](CC)C(=O)O)C[C@@H]32)NC(c2nccs2)=N[C@H]1c1cccc(F)c1C (single isomer, unassigned) [Compound 182B]	11.3	33300	
CCOC(=O)C1=C(CN2C[C@H](F)[C@H]3[C@@H]2CCN3CCC(C)(C)C(=O)O)NC(c2nccs2)=N[C@H]1c1cccc(F)c1C (single isomer, unassigned) [Compound 119]	55.5	20200	
CCOC(=O)C1=C(CN2CC(F)(F)[C@@H]3CN(CCC(C)(C)C(=O)O)C[C@@H]32)NC(c2nccs2)=N[C@H]1c1cccc(F)c1C (single isomer, unassigned) [Compound 17B]	123	72800	
CCOC(=O)C1=C(CN2CC(F)(F)[C@@H]3C(=O)N(CC(C)(C)C(=O)O)C[C@@H]32)NC(c2nccs2)=N[C@H]1c1cccc(F)c1C (relative stereo) [Compound 5A, 3-(1-(((S)-5-(ethoxycarbonyl)-6-(3-fluoro-2-methylphenyl)-2-(thiazol-2-yl)-3,6-dihydropyrimidin-4-yl)methyl)-3,3-difluoro-4-oxohexahydropyrrolo[3,4-b]pyrrol-5(1H)-yl)-2,2-dimethylpropanoic acid]	8.2	70400	
CCOC(=O)C1=C(CN2CC(F)(F)[C@H]3[C@@H]2CCN3[C@H]2C[C@H](CC(=O)O)C2)NC(c2nccs2)=N[C@H]1c1cccc(F)c1C (single isomer, unassigned) [Compound 123B]	9	16100	
CCOC(=O)C1=C(CN2CC(F)(F)[C@@H]3CN(C4(C(=O)O)CC4)C[C@@H]32)NC(c2nccs2)=N[C@H]1c1cccc(F)c1C (single isomer, unassigned) [Compound 196]	3.3	12800	
CCOC(=O)C1=C(CN2CC[C@]3(F)C(=O)N(CCC(C)(C)C(=O)O)C[C@H]23)NC(c2nccs2)=N[C@H]1c1cccc(F)c1C (single isomer, unassigned) [Compound 210B]	97.7	48700	
CCOC(=O)C1=C(CN2CC[C@@]3(F)C(=O)N(CCC(C)(C)C(=O)O)C[C@@H]23)NC(c2nccs2)=N[C@H]1c1cccc(F)c1C (single isomer, unassigned) [Compound 50A]	40.8	49300	
CCOC(=O)C1=C(CN2CC(F)(F)[C@H]3[C@@H]2CCN3CC23CC(C(=O)O)(C2)C3)NC(c2nccs2)=N[C@H]1c1cccc(F)c1C (single isomer, unassigned) [Compound 155]	0.7	10000	
COC(=O)C1=C(CN2CC(F)(F)[C@H]3[C@@H]2CCN3C[C@@H](C)C(=O)O)NC(c2nccs2)=N[C@H]1c1cccc(F)c1C (single isomer, unassigned) [Compound 131A, 3-((cis)-6,6-Difluoro-4-(((S*)-6-(3-fluoro-2-methylphenyl)-5-(methoxycarbonyl)-2-(thiazol-2-yl)-3,6-dihydropyrimidin-4-yl)methyl)hexahydropyrrolo[3,2-b]pyrrol-1(2H)-yl)-2-methylpropanoic acid]		44600	0.5
CCOC(=O)C1=C(CN2CC(F)(F)C3C(=O)N(C(=O)CC(C)(C)C(=O)O)C[C@@H]32)NC(c2nccs2)=N[C@H]1c1cccc(F)c1C (single isomer, unassigned) [Compound 190]	4.3	28700	
CCOC(=O)C1=C(CN2CC(F)(F)[C@H]3[C@@H]2CCN3C2CC(C(=O)O)C2)NC(c2nccs2)=N[C@H]1c1cccc(F)c1C (relative stereo) [Compound 39A, 3-(4-(((S)-5-(ethoxycarbonyl)-6-(3-fluoro-2-methylphenyl)-2-(thiazol-2-yl)-3,6-dihydropyrimidin-4-yl)methyl)-6,6-difluorohexahydropyrrolo[3,2-b]pyrrol-1(2H)-yl)cyclobutane-1-carboxylic acid]	2.4	35000	
CCOC(=O)C1=C(CN2CC(F)(F)[C@@H]3C(=O)N([C@@H](C)C(=O)O)C[C@@H]32)NC(c2nccs2)=N[C@H]1c1cccc(F)c1C (single isomer, unassigned) [Compound 180]	92.6	> 100000	
CCOC(=O)C1=C(CN2CC(F)(F)[C@@H]3CN(S(=O)(=O)[C@H]4C[C@H](C(=O)O)C4)C[C@@H]32)NC(c2nccs2)=N[C@H]1c1cccc(F)c1C (single isomer, unassigned) [Compound 194]	71.3	36700	
CCOC(=O)C1=C(CN2CC(F)(F)[C@@H]3CN(C[C@H](CC)C(=O)O)C(=O)[C@@H]32)NC(c2nccs2)=N[C@H]1c1cccc(F)c1C (single isomer, unassigned) [Compound 183B]	6.4	50200	
CCOC(=O)C1=C(CN2CC(F)(F)[C@H]3[C@@H]2CCN3CC2(C(=O)O)CC2)NC(c2nccs2)=N[C@H]1c1cccc(F)c1C (relative stereo) [Compound 38A, 1-((4-(((S)-5-(ethoxycarbonyl)-6-(3-fluoro-2-methylphenyl)-2-(thiazol-2-yl)-3,6-dihydropyrimidin-4-yl)methyl)-6,6-difluorohexahydropyrrolo[3,2-b]pyrrol-1(2H)-yl)methyl)cyclopropane-1-carboxylic acid]	1.5	20000	
CCOC(=O)C1=C(CN2CC(F)(F)[C@H]3[C@@H]2CN(C(C)=O)N3CCC(C)(C)C(=O)O)NC(c2nccs2)=N[C@@H]1c1ccc(F)c(F)c1C (single isomer, unassigned) [Compound 80B, 4-((cis)-2-acetyl-4-((6-(3,4-difluoro-2-methylphenyl)-5-(ethoxycarbonyl)-2-(thiazol-2-yl)-3,6-dihydropyrimidin-4-yl)methyl)-6,6-difluorohexahydropyrrolo[3,2-c]pyrazol-1(2H)-yl)-2,2-dimethylbutanoic acid]	8	24100	
CCOC(=O)C1=C(CN2CC(F)(F)[C@@H]3CN(S(N)(=O)=O)C[C@@H]32)NC(c2nccs2)=N[C@H]1c1cccc(F)c1C (single isomer, unassigned) [Compound 33]	2.4	14600	
CCOC(=O)C1=C(CN2CC(F)(F)[C@H]3[C@@H]2CCN3C[C@H]2C[C@@](C)(C(=O)O)C2)NC(c2nccs2)=N[C@H]1c1cccc(F)c1C (single isomer, unassigned) [Compound 116A]	0.8	12100	
